Structures can show the parent of a compound that is named as a salt.
Tests used:
[1] = test system: Mycobacterium tuberculosis strain H37RV (ATCC 27294); experiment: Tuberculosis model: mice inoculated intravenously with M. tuberculosis, treated intraperitoneally for 4 weeks, observed to D56; assay type: in vivo, BALB/C female mice; conditions: for Numbers of deaths: 4 weeks
[2] = test system: Mycobacter avium complex (MAC); conditions: 100 mg/kg IM five days a week for four weeks; cited from earlier work
[3] = test system: Staphylococcus pneumoniae (ATCC 6301); experiment: Bacterial pneumonia model: mice inoculated intratracheally, single intravenous treatment 20 hours later, mortality recorded for 10 days; assay type: in vivo, Male CD-1 mice; conditions: Vancomycin dose 1 mg/kg i.v.
Procedure: An investigation of the antibacterial efficacy of nanoparticulate forms of parenterally administered Vancomycin was carried out in comparison with conventional parenteral Vancomycin […] for injection,
Bacteria: […] (ATCC #6301), Gram-positive serotype
Animals: Male CD-1 (Charles River Laboratory) mice weighing 24±2 g provided are used. Space allocation for animals is 45×23×21 cm for 10 mice. The animals are housed in animal cages and are maintained in a hygienic environment under controlled temperature (22°-23° C.) and humidity (50% -60%) with 12 hours light/dark cycles for at least one week in the laboratory prior to initiation of the study. Free access to standard lab food and water supply is allowed.
Pneumonia model: Mice were inoculated intratracheally (IT) with a LD90-100 of […] pneumoniae (ATCC 6301) (9.7×10^6 […]) in 40 μl PBS. In 16 hours, all mice developed pronounced pneumonia, confirmed by histological observation. Test formulations and vehicle were diluted with 5% sterile dextrose and administered intravenously to animals 20 hours after bacterial inoculation. Mortality was recorded once daily for 10 days.

[4] = cited from earlier work
[5] = 100 mg/kg i.p., 2 x week, cumulative 800 mg/kg
[6] = 200 mg/kg i.p., 5 x week, cumulative 4000 mg/kg
[7] = D56, 200 mg/kg i.p., 5 x week for 4 weeks

[H]/N=C(/N)N[C@H]1[C@H](O)[C@@H](O)[C@H](O[C@@H]2O[C@@H](C)[C@](O)(C=O)[C@H]2O[C@@H]2O[C@@H](CO)[C@H](O)[C@@H](O)[C@@H]2NC)[C@@H](N/C(N)=N\[H])[C@@H]1O [Streptomycin USP, Streptomycin sulfate]
Numbers of deaths ([1]; 100 mg/kg i.p., 2 x week, cumulative 800 mg/kg SM base): 5/12
Survival rate (%) 14 d [1, 5]: 83%
Survival rate (%) 28 d [1, 5]: 58%
Survival rate (%) 56 d [1, 5]: 58%
Numbers of deaths ([1]; 200 mg/kg i.p., 5 x week, cumulative 4000 mg/kg SM base): 1/12
Survival rate (%) 14 d [1, 6]: 92%
Survival rate (%) 28 d [1, 6]: 92%
Survival rate (%) 56 d [1, 6]: 92%
Body weight ([1]; D14, 100 mg/kg i.p., 2 x week): 14.90 ± 1.83 g
Log (CFU/Lung) ([1]; D14, 100 mg/kg i.p., 2 x week): 8.16 ± 0.25 Log (CFU/Lung)
Log (CFU/Spleen) ([1]; D14, 100 mg/kg i.p., 2 x week): 7.55 ± 0.26 Log (CFU/Spleen)
Body weight ([1]; D14, 200 mg/kg i.p., 5 x week): 16.22 ± 0.39 g
Log (CFU/Lung) ([1]; D14, 200 mg/kg i.p., 5 x week): 7.85 ± 0.14 Log (CFU/Lung)
Log (CFU/Spleen) ([1]; D14, 200 mg/kg i.p., 5 x week): 6.90 ± 0.08 Log (CFU/Spleen)
Body weight ([1]; D28, 100 mg/kg i.p., 2 x week): 16.73 ± 2.64 g
Log (CFU/Lung) ([1]; D28, 100 mg/kg i.p., 2 x week): 8.37 ± 0.36 Log (CFU/Lung)
Log (CFU/Spleen) ([1]; D28, 100 mg/kg i.p., 2 x week): 7.48 ± 0.51 Log (CFU/Spleen)
Body weight ([1]; D28, 200 mg/kg i.p., 5 x week): 19.62 ± 0.29 g
Log (CFU/Lung) ([1]; D28, 200 mg/kg i.p., 5 x week): 7.57 ± 0.26 Log (CFU/Lung)
Log (CFU/Spleen) ([1]; D28, 200 mg/kg i.p., 5 x week): 6.66 ± 0.28 Log (CFU/Spleen)
Body weight [1, 7]: 17.85 ± 1.15 g
Log (CFU/Lung) [1, 7]: 8.86 ± 0.18 Log (CFU/Lung)
Log (CFU/Spleen) [1, 7]: 7.21 ± 0.23 Log (CFU/Spleen)
bacterial count of MAC from spleen, lungs and liver [2]: significant reduction in bacterial count

Vancomycin sulfate [Vancomycin injection (USP)]
Mortality ([3]; 10 days): 70%
Survival ([3]; 10 days): 30%
Day 1 (deaths recorded that day) ([3]; n=10, Day 1): 0
Day 2 (deaths recorded that day) ([3]; n=10, Day 2): 0
Day 3 (deaths recorded that day) ([3]; n=10, Day 3): 0
Day 4 (deaths recorded that day) ([3]; n=10, Day 4): 1
Day 5 (deaths recorded that day) ([3]; n=10, Day 5): 3
Day 6 (deaths recorded that day) ([3]; n=10, Day 6): 2
Day 7 (deaths recorded that day) ([3]; n=10, Day 7): 0
Day 8 (deaths recorded that day) ([3]; n=10, Day 8): 1
Day 9 (deaths recorded that day) ([3]; n=10, Day 9): 0
Day 10 (deaths recorded that day) ([3]; n=10, Day 10): 0
concentration in epithelial lining fluid ([4]; patients, lung epithelial lining fluid versus plasma): ≤ 20 % of plasma levels
patients with inadequate concentrations ([4]; standard dosage (1 g twice daily)): approximately 40 % of patients

From US20090169635A1, “PHARMACEUTICAL COMPOSITIONS AND USE THEREOF” (priority 2007, published 2009)
